Test results as given in US7087762B2, “Long-lasting antimicrobial reaction product of allantoin and formaldehyde containing a low level of free formaldehyde” (ISP Investments Inc., priority 2002, dated 2006).

System: BC (B. cepacia)
Assay: Preservative challenge test, screening emulsion
Assay type: cell-based, Burkholderia cepacia
Description: A typical cosmetic emulsion was prepared for microbiological challenge testing and predetermined admixtures of a methylol compound and IPBC were added at various use levels. The emulsion thus prepared had the following composition:
To prepare the emulsion, Phases A and B were heated separately to 75°–80° C. Phase A then was added to Phase B with mixing. The mixture then was cooled to 55°–60° C. At this point the desired amount of the preservative admixture was added and the product was cooled to 50° C. while stirring. The citric acid solution then was added to adjust the pH and the mixture was stirred until a temperature of 30° C. was reached.
The challenge tests were carried out using the following microorganisms: SA, ECOLI, PSA, PC, AN and CAN, in this manner. 50 g aliquots of the test emulsion containing various amounts of the preservative admixture were inoculated with approximately 10^7–10^8 of the challenge organisms. The test samples then were stirred to disperse the challenge inoculum. The samples were incubated and assayed at 48 hours, 7, 14, 21 and 28 days. The assays were performed on 1 g of the test sample by serially diluting 10^1 to 10^6 of the original concentration. The plating medium for bacteria was Letheen agar and for fungi it was low pH Mycophil agar with Tween 20. Each plated sample was incubated for 48 hours at 37° C. for bacteria, 5 days at 25° C. for mold, and 3 days at 25° C. for fungi. After incubation, readings of the number of colonies per milliliter (cfu/ml) were made. At 21 days the test product was reinoculated with half of the original inoculum.

O=C1C(N(CO)C(=O)NCO)N(CO)C(=O)N1CO (centres unmarked) [Germall II]
<10 cfu/ml: cfu/ml, 48 hrs (250 ppm) | cfu/ml, 7 days (250 ppm) | cfu/ml, 14 days (250 ppm) | cfu/ml, 21 days (250 ppm) | cfu/ml, 28 days (250 ppm) | cfu/ml, 48 hrs (500 ppm) | cfu/ml, 7 days (500 ppm) | cfu/ml, 14 days (500 ppm) | cfu/ml, 21 days (500 ppm) | cfu/ml, 28 days (500 ppm) | cfu/ml, 48 hrs (1000 ppm) | cfu/ml, 7 days (1000 ppm) | cfu/ml, 14 days (1000 ppm) | cfu/ml, 21 days (1000 ppm) | cfu/ml, 28 days (1000 ppm) | cfu/ml, 48 hrs (2000 ppm) | cfu/ml, 7 days (2000 ppm) | cfu/ml, 14 days (2000 ppm) | cfu/ml, 21 days (2000 ppm) | cfu/ml, 28 days (2000 ppm)
